≈ marks a conversion by molar mass, not a printed value.
Key:
Enterococcus faecalis [1] = assay: Antibacterial activity against vancomycin-sensitive Enterococcus faecalis 12-5 after 18 hrs by CLSI broth microdilution method; type: functional; settings: 12-5, 18 h
[2] = Cytotoxicity against HEK293T cells assessed as reduction in cell viability after 48 hrs by MTS assay; type: cell-based, HEK-293T; settings: human
[3] = test system: Staphylococcus epidermidis; assay: Antibacterial activity against methicillin-sensitive Staphylococcus epidermidis ATCC 12228 after 18 hrs by CLSI broth microdilution method; type: functional; settings: ATCC 12228, 18 h
Staphylococcus aureus [4] = assay: Antibacterial activity against methicillin-sensitive Staphylococcus aureus 15 after 18 hrs by CLSI broth microdilution method; type: functional; settings: Staphylococcus aureus, 15, 18 h
Enterococcus faecium [5] = assay: Antibacterial activity against vancomycin-sensitive Enterococcus faecium 12-3 after 18 hrs by CLSI broth microdilution method; type: functional; settings: 12-3, 18 h
[6] = test system: Staphylococcus epidermidis; assay: Antibacterial activity against methicillin-resistant Staphylococcus epidermidis 12-8 after 18 hrs by CLSI broth microdilution method; type: functional; settings: 12-8, 18 h
Klebsiella pneumoniae [7] = assay: Antibacterial activity against new delhi metallo-beta-lactamase-1 harboring Klebsiella pneumoniae ATCC BAA-2146 after 18 hrs by CLSI broth microdilution method; type: functional
Proteus vulgaris = assay: Antibacterial activity against Proteus vulgaris ATCC 29905 after 18 hrs by CLSI broth microdilution method; type: functional; settings: ATCC 29905, 18 h
Pseudomonas aeruginosa [8] = assay: Antibacterial activity against Pseudomonas aeruginosa 12-16 after 18 hrs by CLSI broth microdilution method; type: functional; settings: 12-16, 18 h
Klebsiella aerogenes [9] = assay: Antibacterial activity against Enterobacter aerogenes ATCC 13048 after 18 hrs by CLSI broth microdilution method; type: functional; settings: ATCC 13048, 18 h
Staphylococcus aureus [10] = assay: Antibacterial activity against methicillin-resistant Staphylococcus aureus ATCC 33591 after 18 hrs by CLSI broth microdilution method; type: functional; settings: ATCC 33591, 18 h
[11] = test system: Acinetobacter calcoaceticus; assay: Antibacterial activity against Acinetobacter calcoaceticus ATCC 19606 after 18 hrs by CLSI broth microdilution method; type: functional; settings: ATCC 19606, 18 h
[12] = test system: Staphylococcus epidermidis; assay: Antibacterial activity against methicillin-sensitive Staphylococcus epidermidis 12-6 after 18 hrs by CLSI broth microdilution method; type: functional; settings: 12-6, 18 h
Klebsiella pneumoniae [13] = assay: Antibacterial activity against extended-spectrum beta-lactamase harboring Klebsiella pneumoniae ATCC 700603 after 18 hrs by CLSI broth microdilution method; type: functional; settings: Klebsiella pneumoniae, 700603, 18 h
Pseudomonas aeruginosa [14] = assay: Antibacterial activity against Pseudomonas aeruginosa PAO1 after 18 hrs by CLSI broth microdilution method; type: functional; settings: PAO1, 18 h
Enterobacter cloacae [15] = assay: Antibacterial activity against Enterobacter cloacae ATCC 43560 after 18 hrs by CLSI broth microdilution method; type: functional; settings: ATCC 43560, 18 h
Enterococcus faecium [16] = assay: Antibacterial activity against vancomycin-resistant Enterococcus faecium 12-1 after 18 hrs by CLSI broth microdilution method; type: functional; settings: 12-1, 18 h
Enterococcus faecalis [17] = assay: Potency index, ratio of levofloxacin MIC to compound MIC for vancomycin-resistant Enterococcus faecalis 09-9; type: functional
Staphylococcus aureus [18] = assay: Antibacterial activity against methicillin-sensitive Staphylococcus aureus ATCC 29213 after 18 hrs by CLSI broth microdilution method; type: functional; settings: ATCC 29213, 18 h
Pseudomonas aeruginosa [19] = assay: Antibacterial activity against Pseudomonas aeruginosa ATCC 27853 after 18 hrs by CLSI broth microdilution method; type: functional; settings: ATCC 27853, 18 h
Escherichia coli [20] = assay: Antibacterial activity against extended-spectrum beta-lactamase deficient Escherichia coli 1515 after 18 hrs by CLSI broth microdilution method; type: functional; settings: Escherichia coli, 1515, 18 h
Enterococcus faecalis [21] = assay: Potency index, ratio of levofloxacin MIC to compound MIC for vancomycin-resistant Enterococcus faecalis ATCC 51299; type: functional
Staphylococcus aureus [22] = assay: Potency index, ratio of levofloxacin MIC to compound MIC for methicillin-resistant Staphylococcus aureus 12-33; type: functional
Staphylococcus aureus [23] = assay: Antibacterial activity against methicillin-sensitive Staphylococcus aureus 12-28 after 18 hrs by CLSI broth microdilution method; type: functional; settings: 12-28, 18 h
Klebsiella pneumoniae [24] = assay: Antibacterial activity against extended-spectrum beta-lactamase deficient Klebsiella pneumoniae 12-4 after 18 hrs by CLSI broth microdilution method; type: functional; settings: 12-4, 18 h
Staphylococcus aureus [25] = assay: Antibacterial activity against methicillin-resistant Staphylococcus aureus 12-33 after 18 hrs by CLSI broth microdilution method; type: functional; settings: 12-33, 18 h
Enterococcus faecium [26] = assay: Potency index, ratio of levofloxacin MIC to compound MIC for vancomycin-resistant Enterococcus faecium ATCC 700221; type: functional
Providencia rettgeri = assay: Antibacterial activity against Providencia rettgeri ATCC 31052 after 18 hrs by CLSI broth microdilution method; type: functional; settings: ATCC 31052, 18 h
[27] = test system: Stenotrophomonas maltophilia; assay: Antibacterial activity against Stenotrophomonas maltophilia ATCC 13636 after 18 hrs by CLSI broth microdilution method; type: functional; settings: ATCC 13636, 18 h
Escherichia coli [28] = assay: Antibacterial activity against extended-spectrum beta-lactamase harboring Escherichia coli 12-15 after 18 hrs by CLSI broth microdilution method; type: functional; settings: 12-15, 18 h
Serratia marcescens = assay: Antibacterial activity against Serratia marcescens ATCC 21074 after 18 hrs by CLSI broth microdilution method; type: functional; settings: ATCC 21074, 18 h
Enterococcus faecalis [29] = assay: Antibacterial activity against vancomycin-resistant Enterococcus faecalis ATCC 51299 after 18 hrs by CLSI broth microdilution method; type: functional; settings: ATCC 51299, 18 h
Proteus mirabilis = assay: Antibacterial activity against Proteus mirabilis 12-6 after 18 hrs by CLSI broth microdilution method; type: functional; settings: 12-6, 18 h
Enterococcus faecium [30] = assay: Potency index, ratio of levofloxacin MIC to compound MIC for vancomycin-resistant Enterococcus faecium 12-1; type: functional
Enterococcus faecium [31] = assay: Antibacterial activity against vancomycin-resistant Enterococcus faecium ATCC 700221 after 18 hrs by CLSI broth microdilution method; type: functional; settings: ATCC 700221, 18 h
Enterococcus faecalis [32] = assay: Antibacterial activity against vancomycin-sensitive Enterococcus faecalis ATCC 29212 after 18 hrs by CLSI broth microdilution method; type: functional; settings: ATCC 29212, 18 h
Enterococcus faecalis [33] = assay: Antibacterial activity against vancomycin-resistant Enterococcus faecalis 09-9 after 18 hrs by CLSI broth microdilution method; type: functional; settings: 09-9, 18 h
Staphylococcus aureus [34] = assay: Potency index, ratio of levofloxacin MIC to compound MIC for methicillin-resistant Staphylococcus aureus ATCC 33591; type: functional
Escherichia coli [35] = assay: Antibacterial activity against extended-spectrum beta-lactamase deficient Escherichia coli 12-14 after 18 hrs by CLSI broth microdilution method; type: functional; settings: 12-14, 18 h
Citrobacter freundii = assay: Antibacterial activity against Citrobacter freundii ATCC 43864 after 18 hrs by CLSI broth microdilution method; type: functional; settings: ATCC 43864, 18 h
Escherichia coli [36] = assay: Antibacterial activity against extended-spectrum beta-lactamase deficient Escherichia coli ATCC 25922 after 18 hrs by CLSI broth microdilution method; type: functional; settings: ATCC 25922, 18 h
Klebsiella pneumoniae [37] = assay: Antibacterial activity against extended-spectrum beta-lactamase deficient Klebsiella pneumoniae 7 after 18 hrs by CLSI broth microdilution method; type: functional; settings: Klebsiella pneumoniae, 7, 18 h
Klebsiella pneumoniae [38] = assay: Antibacterial activity against extended-spectrum beta-lactamase harboring Klebsiella pneumoniae 12-8 after 18 hrs by CLSI broth microdilution method; type: functional; settings: 12-8, 18 h
Klebsiella aerogenes [39] = assay: Antibacterial activity against carbapenem-resistant Enterobacter aerogenes 11-4 after 18 hrs by CLSI broth microdilution method; type: functional
[40] = test system: Acinetobacter calcoaceticus; assay: Antibacterial activity against carbapenem-resistant Acinetobacter calcoaceticus 12-6 after 18 hrs by CLSI broth microdilution method; type: functional
Escherichia coli [41] = assay: Antibacterial activity against extended-spectrum beta-lactamase harboring Escherichia coli 13-1 after 18 hrs by CLSI broth microdilution method; type: functional
Klebsiella pneumoniae [42] = assay: Antibacterial activity against carbapenem-resistant Klebsiella pneumoniae 12-12 after 18 hrs by CLSI broth microdilution method; type: functional
Klebsiella pneumoniae [43] = assay: Antibacterial activity against carbapenem-resistant Klebsiella pneumoniae 12-11 after 18 hrs by CLSI broth microdilution method; type: functional
Enterobacter cloacae [44] = assay: Antibacterial activity against new delhi metallo-beta-lactamase-1 harboring Enterobacter cloacae 13-1 after 18 hrs by CLSI broth microdilution method; type: functional
Klebsiella pneumoniae [45] = assay: Antibacterial activity against new delhi metallo-beta-lactamase-1 harboring Klebsiella pneumoniae 13-1 after 18 hrs by CLSI broth microdilution method; type: functional
[46] = test system: Acinetobacter calcoaceticus; assay: Antibacterial activity against new delhi metallo-beta-lactamase-1 harboring Acinetobacter calcoaceticus 13-1 after 18 hrs by CLSI broth microdilution method; type: functional
Escherichia coli [47] = assay: Antibacterial activity against extended-spectrum beta-lactamase harboring Escherichia coli CDC1001728 after 18 hrs by CLSI broth microdilution method; type: functional
Enterobacter cloacae [48] = assay: Antibacterial activity against new delhi metallo-beta-lactamase-1 harboring Enterobacter cloacae CDC1000654 after 18 hrs by CLSI broth microdilution method; type: functional

N=C(c1ccc2cc(-c3ccc(-c4cc5ccc(C(=N)N6CCC(N7CCCC7)CC6)cc5[nH]4)cc3)[nH]c2c1)N1CCC(N2CCCC2)CC1
MIC (Enterococcus faecalis [1]): 64 µg/mL (≈ 96 µM)
CC50 at 48 h [2]: 50 µg/mL (≈ 75 µM)
MIC [3]: 4 µg/mL (≈ 6 µM)
MIC (Staphylococcus aureus [4]): 8 µg/mL (≈ 12 µM)
MIC (Enterococcus faecium [5]): 16 µg/mL (≈ 24 µM)
MIC [6]: 8 µg/mL (≈ 12 µM)
MIC (Klebsiella pneumoniae [7]; ATCC BAA-2146, 18 h): 32 µg/mL (≈ 48 µM)
MIC (Proteus vulgaris): 128 µg/mL (≈ 192 µM)
MIC (Pseudomonas aeruginosa [8]): 128 µg/mL (≈ 192 µM)
MIC (Klebsiella aerogenes [9]): 16 µg/mL (≈ 24 µM)
MIC (Staphylococcus aureus [10]): 8 µg/mL (≈ 12 µM)
MIC [11]: > 128 µg/mL
MIC [12]: 8 µg/mL (≈ 12 µM)
MIC (Klebsiella pneumoniae [13]): 64 µg/mL (≈ 96 µM)
MIC (Pseudomonas aeruginosa [14]): 128 µg/mL (≈ 192 µM)
MIC (Enterobacter cloacae [15]): 16 µg/mL (≈ 24 µM)
MIC (Enterococcus faecium [16]): 16 µg/mL (≈ 24 µM)
Ratio (Enterococcus faecalis [17]): 4 - 512
MIC (Staphylococcus aureus [18]): 8 µg/mL (≈ 12 µM)
MIC (Pseudomonas aeruginosa [19]): 16 µg/mL (≈ 24 µM)
MIC (Escherichia coli [20]): 16 µg/mL (≈ 24 µM)
Ratio (Enterococcus faecalis [21]): 4 - 512
Ratio (Staphylococcus aureus [22]): 4 - 128
MIC (Staphylococcus aureus [23]): 8 µg/mL (≈ 12 µM)
MIC (Klebsiella pneumoniae [24]): 16 µg/mL (≈ 24 µM)
MIC (Staphylococcus aureus [25]): 8 µg/mL (≈ 12 µM)
Ratio (Enterococcus faecium [26]): 4 - 512
MIC (Providencia rettgeri): 128 µg/mL (≈ 192 µM)
MIC [27]: 128 µg/mL (≈ 192 µM)
MIC (Escherichia coli [28]): 16 µg/mL (≈ 24 µM)
MIC (Serratia marcescens): > 128 µg/mL
MIC (Enterococcus faecalis [29]): 32 µg/mL (≈ 48 µM)
MIC (Proteus mirabilis): > 128 µg/mL
Ratio (Enterococcus faecium [30]): 4 - 512
MIC (Enterococcus faecium [31]): 16 µg/mL (≈ 24 µM)
MIC (Enterococcus faecalis [32]): 16 µg/mL (≈ 24 µM)
MIC (Enterococcus faecalis [33]): 16 µg/mL (≈ 24 µM)
Ratio (Staphylococcus aureus [34]): 4 - 128
MIC (Escherichia coli [35]): 16 µg/mL (≈ 24 µM)
MIC (Citrobacter freundii): 16 µg/mL (≈ 24 µM)
MIC (Escherichia coli [36]): 8 µg/mL (≈ 12 µM)
MIC (Klebsiella pneumoniae [37]): 16 µg/mL (≈ 24 µM)
MIC (Klebsiella pneumoniae [38]): 16 µg/mL (≈ 24 µM)

COLISTIN
MIC (Klebsiella aerogenes [39]): 0.5 µg/mL
MIC [40]: 0.5 µg/mL
MIC (Klebsiella pneumoniae [7]): 0.5 µg/mL
MIC (Escherichia coli [41]): 0.5 µg/mL
MIC (Klebsiella pneumoniae [42]): 1 µg/mL
MIC (Klebsiella pneumoniae [43]): 0.5 µg/mL
MIC (Enterobacter cloacae [44]): 0.5 µg/mL
MIC (Klebsiella pneumoniae [45]): 0.5 µg/mL
MIC [46]: 0.5 µg/mL
MIC (Escherichia coli [47]): 0.5 µg/mL
MIC (Enterobacter cloacae [48]): 0.5 µg/mL
